Converted amounts (≈) assume the structure as drawn. The source made the active and inactive calls. The rule behind the calls is not given here.
Tests used:
ClpP1P2 [1] = biological target: T1, ClpP1P2 (Mycobacterium tuberculosis (strain ATCC 25618 / H37Rv), UniProt P9WPC3+P9WPC5); test: Inhibition of N-terminal His6-SUMO-tagged Mtb ClpP1 (7 to 200 residues)/ClpP2 (13 to 214 residues) complex expressed in Escherichia coli BL21(DE3) using Z-Gly-Gly-Leu-AMC as substrate measured for 60 mins in presence of Bz-LL by fluorescence based assay
T1 sequence (P9WPC5 whole entry, the tested form may be a part): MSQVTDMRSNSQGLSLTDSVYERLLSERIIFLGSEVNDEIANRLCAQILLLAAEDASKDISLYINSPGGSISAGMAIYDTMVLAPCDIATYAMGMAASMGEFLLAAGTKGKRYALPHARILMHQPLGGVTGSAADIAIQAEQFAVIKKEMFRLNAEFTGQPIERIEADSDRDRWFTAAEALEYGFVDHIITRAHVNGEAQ
T1 sequence (P9WPC3 whole entry, the tested form may be a part): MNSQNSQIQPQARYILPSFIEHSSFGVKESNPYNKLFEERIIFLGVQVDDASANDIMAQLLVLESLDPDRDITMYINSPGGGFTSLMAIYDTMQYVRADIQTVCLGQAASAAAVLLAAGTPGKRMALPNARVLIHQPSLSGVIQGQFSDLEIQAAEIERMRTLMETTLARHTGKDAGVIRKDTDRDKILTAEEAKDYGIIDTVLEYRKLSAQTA

ClpP1P2 [2] = biological target: T1, ClpP1P2; test: Inhibition of N-terminal His6-SUMO-tagged Mtb ClpP1 (7 to 200 residues)/ClpP2 (13 to 214 residues) complex expressed in Escherichia coli BL21(DE3) using FITC-casein as substrate measured for 1 hr in presence of Bz-LL/ATP by fluorescence based assay
[3] = system: Mycobacterium tuberculosis; test: Antibacterial activity against Mycobacterium tuberculosis H37Ra assessed as bacterial growth inhibition incubated for 24 hrs by broth microdilution method; assay type: functional
[4] = biological target: T2, ClpP1P2 (Mycobacterium tuberculosis (strain ATCC 25618 / H37Rv)) (UniProt P9WPC5+P9WPC3); test: Binding affinity to ClpP1 in Mtb H37Ra lysate at 5 mM incubated for 4 hrs by affinity based capture method; assay type: subcellular
[5] = biological target: T2, ClpP1P2 (Mycobacterium tuberculosis (strain ATCC 25618 / H37Rv)); test: Inhibition of N-terminal His6-SUMO-tagged Mtb ClpP1 (7 to 200 residues)/ClpP2 (13 to 214 residues) complex expressed in Escherichia coli BL21(DE3) using Z-Gly-Gly-Leu-AMC as substrate at 10 uM incubated for 40 mins in presence of Bz-LL by fluorescence based assay
[6] = biological target: ATP-dependent Clp protease ATP-binding subunit ClpC1 (Mycobacterium tuberculosis) (UniProt P9WPC9); test: Inhibition of N-terminal His6-tagged full-length Mtb ClpC1 ATPase activity expressed in Escherichia coli BL21(DE3) at 100 uM in presence of PK/LDH/ATP/NADH by spectrophotometry
Sequence of ATP-dependent Clp protease ATP-binding subunit ClpC1 (Mycobacterium tuberculosis) (P9WPC9 whole entry, the tested form may be a part): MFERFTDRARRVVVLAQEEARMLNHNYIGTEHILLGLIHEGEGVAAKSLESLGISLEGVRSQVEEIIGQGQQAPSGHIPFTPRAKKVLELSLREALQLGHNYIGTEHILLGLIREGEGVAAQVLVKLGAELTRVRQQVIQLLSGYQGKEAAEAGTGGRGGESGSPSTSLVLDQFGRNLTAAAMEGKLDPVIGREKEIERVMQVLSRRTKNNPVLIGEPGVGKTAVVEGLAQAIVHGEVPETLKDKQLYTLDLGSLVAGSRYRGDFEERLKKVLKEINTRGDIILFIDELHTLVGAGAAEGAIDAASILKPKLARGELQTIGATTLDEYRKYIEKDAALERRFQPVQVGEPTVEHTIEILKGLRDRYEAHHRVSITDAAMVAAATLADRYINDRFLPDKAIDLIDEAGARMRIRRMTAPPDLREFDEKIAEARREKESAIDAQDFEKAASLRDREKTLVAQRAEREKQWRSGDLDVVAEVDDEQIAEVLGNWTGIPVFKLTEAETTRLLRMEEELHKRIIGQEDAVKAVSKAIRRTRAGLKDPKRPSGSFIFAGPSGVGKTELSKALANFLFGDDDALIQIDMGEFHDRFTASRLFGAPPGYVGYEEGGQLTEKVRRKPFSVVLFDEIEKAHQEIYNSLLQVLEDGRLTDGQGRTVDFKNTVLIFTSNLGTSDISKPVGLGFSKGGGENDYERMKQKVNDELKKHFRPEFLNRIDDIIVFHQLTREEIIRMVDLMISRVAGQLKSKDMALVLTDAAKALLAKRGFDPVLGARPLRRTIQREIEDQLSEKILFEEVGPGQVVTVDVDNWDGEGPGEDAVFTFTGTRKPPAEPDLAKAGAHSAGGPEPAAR

[7] = biological target: ATP-dependent Clp protease ATP-binding subunit ClpC1 (Mycobacterium tuberculosis) (UniProt P9WPC9); test: Inhibition of N-terminal His6-tagged full-length Mtb ClpC1 creatine kinase activity expressed in Escherichia coli BL21(DE3) using creatine phosphate as substrate at 100 uM preincubated for 10 mins followed by substrate addition measured after 10 mins in presence of ADP by Kinase-Glo assay; details: time 20.0 min
ClpP1P2 [8] = biological target: T1, ClpP1P2; test: Binding affinity to N-terminal His6-SUMO-tagged Mtb ClpP1 (7 to 200 residues)/ClpP2 (13 to 214 residues) complex expressed in Escherichia coli BL21(DE3) assessed as increase in thermal stability measured at 25 to 110 degreeC in presence of Bz-LL by DSF assay
[9] = Inhibition of full-length Escherichia coli ClpP complex expressed in Escherichia coli BL21(DE3) using Suc-LY-AMC as substrate incubated for 60 mins in presence of Bz-LL by fluorescence based assay
[10] = Inhibition of full-length Staphylococcus aureus ClpP complex expressed in Escherichia coli BL21(DE3) using Suc-LY-AMC as substrate measured for 60 mins in presence of Bz-LL by fluorescence based assay
[11] = Inhibition of full-length Pseudomonas aeruginosa ClpP1 expressed in Escherichia coli BL21(DE3) using Suc-LY-AMC as substrate measured for 60 mins in presence of Bz-LL by fluorescence based assay
[12] = Inhibition of full-length Mtb H37Rv ClpP complex expressed in Escherichia coli BL21(DE3) using FITC-casein as substrate measured for 1 hr in presence of Bz-LL/ATP by fluorescence based assay; design: species or system Mycobacterium tuberculosis
[13] = Inhibition of full-length human ClpP complex ([…]) expressed in Escherichia coli BL21(DE3) using Ac-WLA-AMC as substrate measured for 60 mins in presence of Bz-LL by fluorescence based assay
[14] = Inhibition of full-length Escherichia coli ClpP complex/Escherichia coli ClpX delta N mutant (62 to 425 residues) expressed in Escherichia coli BL21(DE3) using FITC-casein as substrate measured for 1 hr in presence of Bz-LL/ATP by fluorescence based assay
[15] = Inhibition of full-length Staphylococcus aureus ClpP complex/Escherichia coli ClpX delta N mutant (62 to 425 residues) expressed in Escherichia coli BL21(DE3) using FITC-casein as substrate measured for 1 hr in presence of Bz-LL/ATP by fluorescence based assay
[16] = Inhibition of full-length human ClpP complex ([…]) expressed in Escherichia coli BL21(DE3) using FITC-casein as substrate measured for 1 hr in presence of Bz-LL/ONC212/ATP by fluorescence based assay
[17] = Selectivity index, ratio of IC50 for Mtb H37Rv ClpP complex using Z-Gly-Gly-Leu-AMC as substrate to IC50 for N-terminal His6-SUMO-tagged Mtb ClpP1 (7 to 200 residues)/ClpP2 (13 to 214 residues) complex expressed in Escherichia coli BL21(DE3)
[18] = Selectivity index, ratio of IC50 for full-length Escherichia coli ClpP complex expressed in Escherichia coli BL21(DE3) using Suc-LY-AMC as substrate to IC50 for N-terminal His6-SUMO-tagged Mtb ClpP1 (7 to 200 residues)/ClpP2 (13 to 214 residues) complex expressed in Escherichia coli BL21(DE3)
[19] = Selectivity index, ratio of IC50 for full-length Staphylococcus aureus ClpP complex expressed in Escherichia coli BL21(DE3) using Suc-LY-AMC as substrate to IC50 for N-terminal His6-SUMO-tagged Mtb ClpP1 (7 to 200 residues)/ClpP2 (13 to 214 residues) complex expressed in Escherichia coli BL21(DE3)
[20] = Selectivity index, ratio of IC50 for full-length Pseudomonas aeruginosa ClpP1 expressed in Escherichia coli BL21(DE3) using Suc-LY-AMC as substrate to IC50 for N-terminal His6-SUMO-tagged Mtb ClpP1 (7 to 200 residues)/ClpP2 (13 to 214 residues) complex expressed in Escherichia coli BL21(DE3)
[21] = (§1) Selectivity index, ratio of IC50 for full-length human ClpP complex ([…]) expressed in Escherichia coli BL21(DE3) using Ac-WLA-AMC as substrate to IC50 for N-terminal His6-SUMO-tagged Mtb ClpP1 (7 to 200 residues)/ClpP2 (13 to 214 residues) complex expressed in Escherichia coli BL21(DE3)
[22] = Selectivity index, ratio of IC50 for full-length Mtb H37Rv ClpP complex expressed in Escherichia coli BL21(DE3) using FITC-casein as substrate to IC50 for N-terminal His6-SUMO-tagged Mtb ClpP1 (7 to 200 residues)/ClpP2 (13 to 214 residues) complex expressed in Escherichia coli BL21(DE3)
[23] = as §1, with “FITC-casein” for “Ac-WLA-AMC”
[24] = system: Mycobacterium tuberculosis; test: Antibacterial activity against Mycobacterium tuberculosis H37Rv assessed as bacterial growth inhibition incubated for 24 hrs by broth microdilution method; assay type: functional
[25] = system: Mycolicibacterium smegmatis; test: Antibacterial activity against wild-type Mycobacterium smegmatis mc2 155 assessed as bacterial growth inhibition incubated for 2 days by Alamar blue staining based assay; assay type: functional; details: mc2 155, 48 h, time 2 day
Escherichia coli = test: Antibacterial activity against Escherichia coli assessed as bacterial growth inhibition incubated for 24 hrs by broth microdilution method; assay type: functional
Staphylococcus aureus = test: Antibacterial activity against Staphylococcus aureus assessed as bacterial growth inhibition incubated for 24 hrs by broth microdilution method; assay type: functional
Pseudomonas aeruginosa = test: Antibacterial activity against Pseudomonas aeruginosa assessed as bacterial growth inhibition incubated for 24 hrs by broth microdilution method; assay type: functional
[26] = Inhibition of N-terminal His6-SUMO-tagged Mycobacterium smegmatis ClpP1 (3 to 200 residues)/P2 (17 to 218 residues) expressed in Escherichia coli BL21(DE3) using Z-Gly-Gly-Leu-AM as substrate measured for 60 mins in presence of Bz-LL by fluorescence based assay; design: species or system Mycolicibacterium smegmatis
[27] = Inhibition of N-terminal His6-SUMO-tagged Mycobacterium smegmatis ClpP1 (3 to 200 residues)/P2 (17 to 218 residues) expressed in Escherichia coli BL21(DE3)/C1 using Z-Gly-Gly-Leu-AM as substrate measured for 60 mins in presence of Bz-LL by fluorescence based assay; design: species or system Mycolicibacterium smegmatis
[28] = system: Mycolicibacterium smegmatis; test: Antibacterial activity against Mycobacterium smegmatis mc2 155 harboring ClpX knockout assessed as bacterial growth inhibition incubated for 2 days by Alamar blue staining based assay; assay type: functional; details: mc2 155, 48 h, time 2 day
[29] = system: Mycolicibacterium smegmatis; test: Antibacterial activity against Mycobacterium smegmatis mc2 155 harboring ClpC1 knockout assessed as bacterial growth inhibition incubated for 2 days by Alamar blue staining based assay; assay type: functional; details: mc2 155, 48 h, time 2 day
[30] = biological target: T2, ClpP1P2 (Mycobacterium tuberculosis (strain ATCC 25618 / H37Rv)); test: Inhibition of wild-type Mtb ClpP1 expressed in Escherichia coli BL21(DE3)

## COc1cc2c(Oc3ccc4[nH]c(C)cc4c3F)ncnc2cc1O
ClpP1P2 [1]
  IC50: 45.3 µM
ClpP1P2 [2]
  IC50: > 100 µM
[3]
  MIC: > 118 µM

## COc1cc2c(Nc3ccc4[nH]c(C)cc4c3F)ncnc2cc1OCCCN1CCCC1
ClpP1P2 [1]
  IC50: > 100 µM
ClpP1P2 [2]
  IC50: > 100 µM
[3]
  MIC: > 89 µM

## COc1cc2c(Oc3ccc4cc[nH]c4c3)ncnc2cc1OCCCN1CCCC1
ClpP1P2 [1]
  IC50: > 100 µM
ClpP1P2 [2]
  IC50: > 100 µM
[3]
  MIC: > 95.6 µM

## COc1cc2c(Oc3ccc4[nH]c(C)cc4c3F)ncnc2cc1OCCCN1CCC[C@@H](N)C1
ClpP1P2 [1]
  IC50: 3.3 µM
ClpP1P2 [2]
  IC50: 19.1 µM
[3]
  MIC: 32 µM (≈ 15.3 µg/mL)
[4]
  Activity: Active

## COc1cc2c(OC)ncnc2cc1OCCCN1CCCC1
ClpP1P2 [1]
  IC50: > 100 µM
ClpP1P2 [2]
  IC50: > 100 µM
[3]
  MIC: > 126 µM

## COc1cc(C(=O)Nc2ccc3[nH]c(C)cc3c2F)ccc1OCCCN1CCCC1
ClpP1P2 [1]
  IC50: 26.8 µM
ClpP1P2 [2]
  IC50: > 100 µM
[3]
  MIC: > 94 µM

## COc1cc2c(Oc3ccc4[nH]c(C)cc4c3F)ncnc2cc1OCCCCl
ClpP1P2 [1]
  IC50: 49.2 µM
ClpP1P2 [2]
  IC50: > 100 µM
[3]
  MIC: > 96.2 µM

## Cc1cc2c(F)c(Oc3ncnn4cc(OC[C@@H](C)O)c(C)c34)ccc2[nH]1 [BRIVANIB]
ClpP1P2 [1]
  IC50: 6.9 µM
[5]
  inhibition: Active
ClpP1P2 [2]
  IC50: 24.2 µM
[6]
  inhibition: inactive
[7]
  inhibition: inactive

## COc1cc2c(Oc3ccc4[nH]c(C)cc4c3F)ncnc2cc1OCCCN1CCCC1 [CEDIRANIB]
ClpP1P2 [1]
  IC50: 2.8 µM
[5]
  inhibition: Active
ClpP1P2 [2]
  IC50: 45.1 µM
[6]
  inhibition: inactive
[7]
  inhibition: inactive
ClpP1P2 [8]
  EC50: 29 µM
[9]
  IC50: > 500 µM
[10]
  IC50: > 500 µM
[11]
  IC50: > 500 µM
[12]
  IC50: 24.2 µM
[13]
  IC50: 37.5 µM
[14]
  IC50: 358 µM
[15]
  IC50: 234 µM
[16]
  IC50: 273 µM
[17]
  Ratio IC50: 1
[18]
  Ratio IC50: > 170
[19]
  Ratio IC50: > 170
[20]
  Ratio IC50: > 170
[21]
  Ratio IC50: 13.3
[22]
  Ratio IC50: 14.8
[23]
  Ratio IC50: 11.3
[24]
  MIC: 28.2 µM (≈ 12.7 µg/mL)
[3]
  MIC: 14.1 µM (≈ 6.35 µg/mL)
[25]
  MIC: 113 µM (≈ 50.9 µg/mL)
Escherichia coli
  MIC: > 226 µM
Staphylococcus aureus
  MIC: > 226 µM
Pseudomonas aeruginosa
  MIC: > 226 µM
[26]
  IC50: 6.2 µM
[27]
  IC50: 43.9 µM
[28]
  MIC: 56.4 µg/mL (≈ 125 µM)
[29]
  MIC: 56.4 µg/mL (≈ 125 µM)
[30]
  inhibition: inactive

## Oc1c(Cl)cc(Cl)c(Cl)c1Cc1c(O)c(Cl)cc(Cl)c1Cl [HEXACHLOROPHENE]
ClpP1P2 [1]
  IC50: 4.9 µM
[5]
  inhibition: Active

## CC(=O)NC[C@H]1CN(c2ccc(N3CCOCC3)c(F)c2)C(=O)O1 [LINEZOLID]
[24]
  MIC: 0.2 µM (≈ 0.0675 µg/mL)
[3]
  MIC: 0.2 µM (≈ 0.0675 µg/mL)
[25]
  MIC: 5.9 µM (≈ 1.99 µg/mL)
Escherichia coli
  MIC: > 379 µM
Staphylococcus aureus
  MIC: 5.9 µM (≈ 1.99 µg/mL)
Pseudomonas aeruginosa
  MIC: > 379 µM

## CO[C@H]1/C=C/O[C@@]2(C)Oc3c(C)c(O)c4c(O)c(c(/C=N/N5CCN(C)CC5)c(O)c4c3C2=O)NC(=O)/C(C)=C\C=C\[C@H](C)[C@H](O)[C@@H](C)[C@@H](O)[C@@H](C)[C@H](OC(C)=O)[C@@H]1C [RIFAMPIN]
Escherichia coli
  MIC: 4.9 µM (≈ 4.03 µg/mL)
Pseudomonas aeruginosa
  MIC: 38.9 µM (≈ 32 µg/mL)

— ChEMBL document CHEMBL5375995, “Discovery and Mechanistic Study of Novel Mycobacterium tuberculosis ClpP1P2 Inhibitors” (J Med Chem, 2023)
